# According to the supplement of paper PMC10307832:
# Assays:
# Assay in all cases: relative viability (nuclei count vs DMSO), 5 days (fraction); higher = more cells survive
# [1] = test system: NCI-H322M
# Procedure, shortened: (§1)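 Lung cancer cell lines in 1536-well plates were dosed by pin tool the day after seeding, either with one drug alone or with a fixed anchor-drug dose plus five library-drug doses (not always all listed) in √10 steps. After 5 days, cells were fixed and their nuclei stained in one step (final 0.05% Triton X-100, 1% formaldehyde, 1 ug/ml Hoechst), then counted on 4× images. Relative viability is the nuclei count in treated wells divided by that in vehicle wells. Values are medians of duplicate plates.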
# [2] = test system: EKVX
# Procedure, shortened: as §1
# [3] = test system: NCI-H2405
# Procedure, shortened: as §1
# [4] = test system: NCI-H661
# Procedure, shortened: as §1
# [5] = test system: ABC-1
# Procedure, shortened: as §1
# [6] = test system: LK-2
# Procedure, shortened: as §1
# [7] = test system: NCI-H1734
# Procedure, shortened: as §1
# [8] = test system: SW 1573
# Procedure, shortened: as §1
# [9] = test system: NCI-H2342
# Procedure, shortened: as §1
# [10] = test system: NCI-H520
# Procedure, shortened: as §1
# [11] = test system: COR-L23
# Procedure, shortened: as §1
# [12] = test system: NCI-H1355
# Procedure, shortened: as §1
# [13] = test system: PC-14
# Procedure, shortened: as §1
# [14] = test system: HCC-827
# Procedure, shortened: as §1
# [15] = test system: RERF-LC-KJ
# Procedure, shortened: as §1
# [16] = test system: NCI-H1437
# Procedure, shortened: as §1
# [17] = test system: NCI-H1650
# Procedure, shortened: as §1
# [18] = test system: H3255
# Procedure, shortened: as §1
# [19] = test system: HCC-15
# Procedure, shortened: as §1
# [20] = test system: PC-3 [JPC-3]
# Procedure, shortened: as §1
smiles,measurement,setting,value
NC(=O)Nc1cc(-c2cccc(F)c2)sc1C(=O)N[C@H]1CCCNC1 [AZD7762] + Nc1ncn([C@H]2C[C@H](O)[C@@H](CO)O2)c(=O)n1 [Decitabine] (partner 2 µM),relative viability,[1]; first compound 0.01 µM,0.813
same,relative viability,[1]; first compound 0.03162 µM,0.789
same,relative viability,[1]; first compound 0.1 µM,0.801
same,relative viability,[1]; first compound 0.3162 µM,0.783
same,relative viability,[1]; first compound 1 µM,0.457
same,relative viability,[2]; first compound 0.01 µM,0.456
same,relative viability,[2]; first compound 0.03162 µM,0.388
same,relative viability,[2]; first compound 0.1 µM,0.326
same,relative viability,[2]; first compound 0.3162 µM,0.395
same,relative viability,[2]; first compound 1 µM,0.37
same,relative viability,[3]; first compound 0.01 µM,0.806
same,relative viability,[3]; first compound 0.03162 µM,0.777
same,relative viability,[3]; first compound 0.1 µM,0.808
same,relative viability,[3]; first compound 0.3162 µM,0.765
same,relative viability,[3]; first compound 1 µM,0.487
same,relative viability,[4]; first compound 0.01 µM,0.689
same,relative viability,[4]; first compound 0.03162 µM,0.62
same,relative viability,[4]; first compound 0.1 µM,0.642
same,relative viability,[4]; first compound 0.3162 µM,0.609
same,relative viability,[4]; first compound 1 µM,0.356
same,relative viability,[5]; first compound 0.01 µM,1.07
same,relative viability,[5]; first compound 0.03162 µM,1.11
same,relative viability,[5]; first compound 0.1 µM,0.989
same,relative viability,[5]; first compound 0.3162 µM,0.909
same,relative viability,[5]; first compound 1 µM,0.617
same,relative viability,[6]; first compound 0.01 µM,0.476
same,relative viability,[6]; first compound 0.03162 µM,0.479
same,relative viability,[6]; first compound 0.1 µM,0.346
same,relative viability,[6]; first compound 0.3162 µM,0.346
same,relative viability,[6]; first compound 1 µM,0.25
same,relative viability,[7]; first compound 0.01 µM,0.567
same,relative viability,[7]; first compound 0.03162 µM,0.581
same,relative viability,[7]; first compound 0.1 µM,0.51
same,relative viability,[7]; first compound 0.3162 µM,0.517
same,relative viability,[7]; first compound 1 µM,0.39
same,relative viability,[8]; first compound 0.01 µM,0.565
same,relative viability,[8]; first compound 0.03162 µM,0.523
same,relative viability,[8]; first compound 0.1 µM,0.482
same,relative viability,[8]; first compound 0.3162 µM,0.324
same,relative viability,[8]; first compound 1 µM,0.172
same,relative viability,[9]; first compound 0.01 µM,0.68
same,relative viability,[9]; first compound 0.03162 µM,0.731
same,relative viability,[9]; first compound 0.1 µM,0.805
same,relative viability,[9]; first compound 0.3162 µM,0.821
same,relative viability,[9]; first compound 1 µM,0.854
same,relative viability,[10]; first compound 0.01 µM,0.521
same,relative viability,[10]; first compound 0.03162 µM,0.522
same,relative viability,[10]; first compound 0.1 µM,0.52
same,relative viability,[10]; first compound 0.3162 µM,0.475
same,relative viability,[10]; first compound 1 µM,0.246
same,relative viability,[11]; first compound 0.01 µM,0.485
same,relative viability,[11]; first compound 0.03162 µM,0.535
same,relative viability,[11]; first compound 0.1 µM,0.563
same,relative viability,[11]; first compound 0.3162 µM,0.35
same,relative viability,[11]; first compound 1 µM,0.166
same,relative viability,[12]; first compound 0.01 µM,0.352
same,relative viability,[12]; first compound 0.03162 µM,0.385
same,relative viability,[12]; first compound 0.1 µM,0.317
same,relative viability,[12]; first compound 0.3162 µM,0.407
same,relative viability,[12]; first compound 1 µM,0.475
same,relative viability,[13]; first compound 0.01 µM,0.234
same,relative viability,[13]; first compound 0.03162 µM,0.225
same,relative viability,[13]; first compound 0.1 µM,0.166
same,relative viability,[13]; first compound 0.3162 µM,0.137
same,relative viability,[13]; first compound 1 µM,0.0898
same,relative viability,[14]; first compound 0.01 µM,0.312
same,relative viability,[14]; first compound 0.03162 µM,0.428
same,relative viability,[14]; first compound 0.1 µM,0.362
same,relative viability,[14]; first compound 0.3162 µM,0.338
same,relative viability,[14]; first compound 1 µM,0.233
same,relative viability,[15]; first compound 0.01 µM,0.743
same,relative viability,[15]; first compound 0.03162 µM,0.793
same,relative viability,[15]; first compound 0.1 µM,0.962
same,relative viability,[15]; first compound 0.3162 µM,0.845
same,relative viability,[15]; first compound 1 µM,0.611
same,relative viability,[16]; first compound 0.01 µM,0.638
same,relative viability,[16]; first compound 0.03162 µM,0.622
same,relative viability,[16]; first compound 0.1 µM,0.721
same,relative viability,[16]; first compound 0.3162 µM,0.656
same,relative viability,[16]; first compound 1 µM,0.57
same,relative viability,[17]; first compound 0.01 µM,0.606
same,relative viability,[17]; first compound 0.03162 µM,0.593
same,relative viability,[17]; first compound 0.1 µM,0.62
same,relative viability,[17]; first compound 0.3162 µM,0.477
same,relative viability,[17]; first compound 1 µM,0.284
same,relative viability,[18]; first compound 0.01 µM,0.528
same,relative viability,[18]; first compound 0.03162 µM,0.708
same,relative viability,[18]; first compound 0.1 µM,0.683
same,relative viability,[18]; first compound 0.3162 µM,0.599
same,relative viability,[18]; first compound 1 µM,0.625
same,relative viability,[19]; first compound 0.01 µM,0.565
same,relative viability,[19]; first compound 0.03162 µM,0.587
same,relative viability,[19]; first compound 0.1 µM,0.622
same,relative viability,[19]; first compound 0.3162 µM,0.553
same,relative viability,[19]; first compound 1 µM,0.589
same,relative viability,[20]; first compound 0.01 µM,0.892
same,relative viability,[20]; first compound 0.03162 µM,0.869
same,relative viability,[20]; first compound 0.1 µM,0.949
same,relative viability,[20]; first compound 0.3162 µM,0.848
same,relative viability,[20]; first compound 1 µM,0.592
